Measurements reported in US8067042B1 (Mutual Pharmaceutical Company, Inc., priority 2007, dated 2011).
Several values for one entry are separate records, joined by “and”; a condition that tells them apart may be missing. Equal entries are not always repeated. Where two headings read alike, the source gives them in different places.

Key:
[1] = biological target: T1, CYP1A2 (Homo sapiens, UniProt P05177); conditions: 60 min, 5 μM, pH 7.4
T1 sequence (P05177 1-516): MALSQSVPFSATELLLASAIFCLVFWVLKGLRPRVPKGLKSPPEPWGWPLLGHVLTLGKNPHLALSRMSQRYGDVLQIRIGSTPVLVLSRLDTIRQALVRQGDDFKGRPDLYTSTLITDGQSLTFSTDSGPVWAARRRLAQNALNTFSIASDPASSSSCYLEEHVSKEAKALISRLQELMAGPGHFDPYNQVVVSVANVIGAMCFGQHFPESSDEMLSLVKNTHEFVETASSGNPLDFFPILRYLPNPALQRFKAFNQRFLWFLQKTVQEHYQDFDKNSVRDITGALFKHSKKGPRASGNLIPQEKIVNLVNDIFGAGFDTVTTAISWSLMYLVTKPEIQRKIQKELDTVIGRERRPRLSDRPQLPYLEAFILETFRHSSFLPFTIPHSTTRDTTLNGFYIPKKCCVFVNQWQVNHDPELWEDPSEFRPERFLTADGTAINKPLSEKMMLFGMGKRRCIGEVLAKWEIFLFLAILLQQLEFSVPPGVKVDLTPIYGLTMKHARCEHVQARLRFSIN

[2] = biological target: T2, CYP2C8 (Homo sapiens, UniProt P10632); conditions: 60 min, 100 μM, pH 7.4
T2 sequence (P10632 1-490): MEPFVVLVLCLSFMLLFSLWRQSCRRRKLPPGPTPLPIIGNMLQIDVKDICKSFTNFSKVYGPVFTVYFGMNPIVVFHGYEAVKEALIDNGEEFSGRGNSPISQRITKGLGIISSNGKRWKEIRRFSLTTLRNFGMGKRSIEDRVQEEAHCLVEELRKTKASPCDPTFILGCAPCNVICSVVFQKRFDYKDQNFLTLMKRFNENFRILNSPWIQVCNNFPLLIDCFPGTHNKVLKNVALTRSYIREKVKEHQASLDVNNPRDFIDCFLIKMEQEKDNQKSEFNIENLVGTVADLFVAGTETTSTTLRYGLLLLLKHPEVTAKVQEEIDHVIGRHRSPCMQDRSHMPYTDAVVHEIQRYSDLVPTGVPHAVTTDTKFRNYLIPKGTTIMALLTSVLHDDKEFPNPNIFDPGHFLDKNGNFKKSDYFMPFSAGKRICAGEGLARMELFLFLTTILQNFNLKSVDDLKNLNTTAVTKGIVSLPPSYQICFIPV
Method: After a 5-minute pre-incubation, NRS was added to the incubation mixtures to initiate reactions. The final incubation volume was 0.5 mL. Incubations were continued for 60 minutes. […] In these experiments, each CYP isoform-selective substrate was prepared as 100× stock solutions in the solvent listed below.
Incubation reactions for positive controls were terminated by adding 0.5 mL methanol, except for paclitaxel (CYP2C8) which was terminated by adding 0.75 mL of acetonitrile.
Specific activity for each CYP isoform was calculated based on the formation of metabolite from each CYP isoform-selective substrate.

[3] = biological target: T3, CYP2E1 (Homo sapiens, UniProt P05181); conditions: 60 min, 100 μM, pH 7.4
T3 sequence (P05181 whole entry): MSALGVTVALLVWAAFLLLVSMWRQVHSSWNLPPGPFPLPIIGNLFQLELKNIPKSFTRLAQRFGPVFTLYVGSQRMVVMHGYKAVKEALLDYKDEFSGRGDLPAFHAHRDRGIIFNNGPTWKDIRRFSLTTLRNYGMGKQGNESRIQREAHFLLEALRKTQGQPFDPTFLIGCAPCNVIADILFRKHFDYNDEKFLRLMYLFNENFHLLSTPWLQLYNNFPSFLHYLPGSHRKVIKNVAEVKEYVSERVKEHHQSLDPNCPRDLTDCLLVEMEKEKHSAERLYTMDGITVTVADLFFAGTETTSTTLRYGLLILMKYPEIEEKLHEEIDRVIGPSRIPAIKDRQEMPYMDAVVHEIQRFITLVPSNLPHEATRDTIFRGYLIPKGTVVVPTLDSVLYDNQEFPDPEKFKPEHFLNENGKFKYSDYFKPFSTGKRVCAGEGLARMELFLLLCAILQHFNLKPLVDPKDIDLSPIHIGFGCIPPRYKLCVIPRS

[4] = system: CYP2E1; assay type: in vitro ADME; conditions: 50 μM megestrol acetate (Parent)
[5] = biological target: T2, CYP2C8; assay type: in vitro ADME; parameters: purchased BD Biosciences Discovery Labware, Woburn, Mass; host or cells: baculovirus-infected insect cells; conditions: LC/MS; 50 μM megestrol acetate (Parent), 20 pmol Human CYP2C8 + P450 Reductase + Cytochrome b5 SUPERSOMES
[6] = biological target: T4, CYP2A6 (Homo sapiens, UniProt P11509); assay type: in vitro ADME; parameters: purchased BD Biosciences Discovery Labware, Woburn, Mass; host or cells: baculovirus-infected insect cells; conditions: LC/MS; 50 μM megestrol acetate (Parent), 20 pmol Human CYP2A6 + P450 Reductase + Cytochrome b5 SUPERSOMES
T4 sequence (P11509 1-494): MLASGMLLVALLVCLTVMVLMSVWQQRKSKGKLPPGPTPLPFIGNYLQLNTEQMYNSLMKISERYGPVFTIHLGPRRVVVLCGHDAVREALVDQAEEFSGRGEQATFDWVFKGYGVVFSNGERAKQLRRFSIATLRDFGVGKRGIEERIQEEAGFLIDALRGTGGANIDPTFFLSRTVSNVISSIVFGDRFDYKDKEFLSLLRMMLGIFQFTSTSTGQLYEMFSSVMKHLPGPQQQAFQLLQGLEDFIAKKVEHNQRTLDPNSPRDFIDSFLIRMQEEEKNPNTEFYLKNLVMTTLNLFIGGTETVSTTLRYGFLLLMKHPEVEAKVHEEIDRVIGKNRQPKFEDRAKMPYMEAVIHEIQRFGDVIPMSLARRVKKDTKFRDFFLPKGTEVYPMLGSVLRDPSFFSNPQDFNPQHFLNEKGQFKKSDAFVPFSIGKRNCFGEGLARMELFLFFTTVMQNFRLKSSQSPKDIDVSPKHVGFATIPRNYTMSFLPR

[7] = biological target: T3, CYP2E1; assay type: in vitro ADME; parameters: purchased BD Biosciences Discovery Labware, Woburn, Mass; host or cells: baculovirus-infected insect cells; conditions: LC/MS; 50 μM megestrol acetate (Parent), 20 pmol Human CYP2E1 + P450 Reductase + Cytochrome b5 SUPERSOMES
[8] = system: CYP2C8; assay type: in vitro ADME; conditions: 50 μM megestrol acetate (Parent)
[9] = biological target: T5, CYP2B6 (Homo sapiens, UniProt P20813); assay type: in vitro ADME; parameters: purchased BD Biosciences Discovery Labware, Woburn, Mass; host or cells: baculovirus-infected insect cells; conditions: LC/MS; 50 μM megestrol acetate (Parent), 20 pmol Human CYP2B6 + P450 Reductase + Cytochrome b5 SUPERSOMES
T5 sequence (P20813 1-491): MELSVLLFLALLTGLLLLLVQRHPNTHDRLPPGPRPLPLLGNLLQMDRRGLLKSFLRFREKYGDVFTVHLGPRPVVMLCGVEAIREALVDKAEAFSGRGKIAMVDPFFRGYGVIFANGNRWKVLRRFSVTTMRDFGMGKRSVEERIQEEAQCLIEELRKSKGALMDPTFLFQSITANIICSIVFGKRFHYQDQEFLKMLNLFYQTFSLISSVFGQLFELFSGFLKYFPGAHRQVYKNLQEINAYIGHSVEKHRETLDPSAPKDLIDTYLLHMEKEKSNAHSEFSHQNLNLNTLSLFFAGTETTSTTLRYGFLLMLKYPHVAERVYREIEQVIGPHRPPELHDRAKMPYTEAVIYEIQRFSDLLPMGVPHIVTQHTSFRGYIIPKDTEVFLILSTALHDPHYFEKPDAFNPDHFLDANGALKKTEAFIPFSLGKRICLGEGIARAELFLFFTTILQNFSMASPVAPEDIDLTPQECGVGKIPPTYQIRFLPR

[10] = system: CYP2A6; conditions: 50 μM megestrol acetate (Parent), 0.5 mg/mL pooled human liver microsomes with 1% water (no inhibitor)
[11] = biological target: T5, CYP2B6; conditions: 50 μM megestrol acetate (Parent), 0.5 mg/mL pooled human liver microsomes with 1% methanol (no inhibitor)
[12] = biological target: T4, CYP2A6; conditions: 10 μM Tranylcypromine
[13] = 0.5 mg/mL pooled human liver microsomes with 100 μM Diethyldithiocarbamate
[14] = 0.5 mg/mL pooled human liver microsomes with 1% water (no inhibitor)
[15] = 0.5 mg/mL pooled human liver microsomes with 100 μM Quercetin
[16] = 0.5 mg/mL pooled human liver microsomes with 0.1% DMSO (no inhibitor)

`Cc1nc2c([nH]1)c(=O)n(C)c(=O)n2Cc1ccco1` [Furafylline] was tested, and the “Metabolite Formation Adjusted Mean ± SD” value [1] was 0.593 ± 0.0333 µM.

`O=c1c(O)c(-c2ccc(O)c(O)c2)oc2cc(O)cc(O)c12` [Quercetin] was tested, and the “Specific Activity Mean ± SD” value [2] was 2.64 ± 0.250 pmol metabolite/min/pmol protein and the “CYP2C8 activity in presence of inhibitor” value ([2]; microsomes) was 2.64±0.250 pmol metabolite/minute/mg protein.

With `CCN(CC)C(=S)S` [DDC, Diethyldithiocarbamate] the “Metabolite Formation Adjusted Mean ± SD” value [3] was 1.77 ± 0.0341 µM, the “Specific Activity Mean ± SD” value [3] was 58.9 ± 1.14 pmol metabolite/min/pmol protein and the “CYP2E1 activity in presence of inhibitor” value ([3]; microsomes) was 58.9±1.14 pmol metabolite/minute/mg protein.

With `CC(=O)O[C@]1(C(C)=O)CC[C@H]2[C@@H]3C=C(C)C4=CC(=O)CC[C@]4(C)[C@H]3CC[C@@]21C` [Parent] the Area % [4, 13] was 90.95%, the “Peak Area” value [4, 13] was 5225.10 and the Area % [4, 14] was 59.79%. The “Peak Area” value [4, 14] was 3520.60, the Area % [5] was 99.28% and the “Peak Area” value [5] was 7474.90. The Area % [6] was 100.00%, the “Peak Area” value [6] was 7120.60 and the Area % [7] was 100.00%. The “Peak Area” value [7] was 7274.10, the Area % [8, 15] was 99.11% and the “Peak Area” value [8, 15] was 5734.70. The Area % [8, 16] was 69.53%, the “Peak Area” value [8, 16] was 4151.30 and the Area % [9] was 98.77%. The “Peak Area” value [9] was 7320.20, the Area % [10] was 59.79% and the “Peak Area” value [10] was 2932.40. For the same compound, the Area % [11] was 63.45% and the “Peak Area” value [11] was 2924.70.

`N[C@@H]1C[C@H]1c1ccccc1` (racemic) [Tranylcypromine] was tested, and the “CYP2A6 activity in presence of inhibitor” value [12] was 18.7±0.597 pmol metabolite/minute/mg protein, the “Metabolite Formation Adjusted Individual” value [12] was 0.582 µM and 0.548 µM and 0.556 µM and the “Metabolite Formation Adjusted Mean ± SD” value [12] was 0.562 ± 0.0179 µM. The “Metabolite Formation Raw” value [12] was 0.582 µM and 0.5477 µM and 0.5561 µM, the “Specific Activity Individual” value [12] was 19.4 pmol metabolite/min/pmol protein and 18.3 pmol metabolite/min/pmol protein and 18.5 pmol metabolite/min/pmol protein and the “Specific Activity Mean ± SD” value [12] was 18.7 ± 0.597 pmol metabolite/min/pmol protein.
